# Patent publication US20230293560A1, “METHOD FOR MODULATING THE BLADDER MICROBIOME TO IMPROVE BLADDER HEALTH” (Kimberly-Clark Worldwide, Inc., priority 2020, published 2023)
# Tests used:
# S. anginosus = experiment: High throughput assay screening of prebiotics; format: cell-based, Streptococcus anginosus; set-up: key: ++: if growth and fermentation was equal to or greater than the positive control; +: if growth and fermentation was less than the positive control; +: if weak or no growth or fermentation; +^2: Bacteria demonstrated growth but no fermentation on the prebiotic; conditions: 2% w/v prebiotic in API 50 CHL media; for growth and fermentation vs positive control, Sa-2: S. anginosus KC18-1131-3B, Bladder; for growth and fermentation vs positive control, Sa-1: S. anginosus ATCC 33397, Culture Collection
# Experimental: (§1) Most of the prebiotic compounds were initially tested in a high throughput assay screening process, described further in the Test Methods section herein, but three prebiotics (as noted in Table 3) were tested using a plate assay screening process as described in the Test Methods section herein. The prebiotics were tested against the commensal bacterial species of Lactobacillus crispatus, Lactobacillus gasseri, and Lactobacillus jensenii and against the pathogenic bacterial species of Streptococcus anginosus and Enterococcus faecalis as shown in Table 2. The bacterial species were taken from different sources, listed as culture collection, bladder, and vagina.
# (§2) The results of the assay plate screening of the prebiotic compounds of Table 1 against the bacterial species of Table 2 is documented in Table 3 with the results being described by the following legend: • ++ if growth and fermentation was equal to or greater than the positive control • + if growth and fermentation was less than the positive control • […] if weak or no growth or fermentation • NT if not tested Some codes were not tested based on the use or non-use by the bacteria, as a way to efficiently move through the assay plate screening to the competition assay, described below.
# (§3) • 1. Create a 2% w/v stock of prebiotic or positive control (glucose/dextrose) to be tested in API 50 CHL media (Biomerieux, Marcy-I'Étoile, France). API 50 CHL media contains minimal amounts of carbon for growth, and a bromocresol purple as a pH indicator of fermentation. Filter sterilize media with a […]. Store at 4-6° C. until use. • 2. Add 180 μL of media containing the prebiotic to a sterile, flat bottom 96-well microtiter plate (Corning, Corning, NY). • 3. From a freezer stock subculture the bacteria twice into De Man, Rogosa and Sharpe (MRS) broth (BD Difco, Becton Dickinson, Franklin Lakes, NJ), 37° C., stationary, anaerobic, overnight. • 4. From the last subculture, plate onto an MRS agar plate (Teknova, Hollister, CA) and grow 37° C., stationary, anaerobic, overnight. • 5. Create a bacterial suspension by using a sterile tipped swab to transfer colonies of bacteria into a PBS suspension blank to a 0.5 MacFarland (S. anginosus or E. faecalis) or a 1 MacFarland (Lactobacillus species) from the MRS agar plate. • 6. Enumerate the starting culture. • 7. Inoculate the media alone and media containing the prebiotic or positive control with 20 μL of the bacterial suspension. • 8. Place the plate into a spectrophotometer (Molecular Devices, San Jose, CA) and read the plate every 20 minutes for 24-48 hours. Read wavelengths (OD 430, OD 590, and OD 660). A color change to yellow caused by a drop in pH will be read by an increase in the OD430 value and a decrease in the OD590 value and is indicative of bacterial fermentation. An increase in OD660 values is indicative of an increase in turbidity and bacterial growth.
# L. jensenii = experiment: High throughput assay screening of prebiotics; format: cell-based, Lactobacillus jensenii; set-up: key: ++: if growth and fermentation was equal to or greater than the positive control; +: if growth and fermentation was less than the positive control; +: if weak or no growth or fermentation; +^2: Bacteria demonstrated growth but no fermentation on the prebiotic; conditions: 2% w/v prebiotic in API 50 CHL media; for growth and fermentation vs positive control, Lj-2: L. jensenii KC17-4347-1, Bladder
# Experimental: as §1, §2, §3
# L. gasseri = experiment: High throughput assay screening of prebiotics; format: cell-based, Lactobacillus gasseri; set-up: key: ++: if growth and fermentation was equal to or greater than the positive control; +: if growth and fermentation was less than the positive control; +: if weak or no growth or fermentation; +^2: Bacteria demonstrated growth but no fermentation on the prebiotic; conditions: 2% w/v prebiotic in API 50 CHL media; for growth and fermentation vs positive control, Lg-1: L. gasseri KC16-7135-1, Bladder; for growth and fermentation vs positive control, Lg-2: L. gasseri KC16-7171-1, Bladder
# Experimental: as §1, §2, §3
# E. faecalis = experiment: High throughput assay screening of prebiotics; format: cell-based, Enterococcus faecalis; set-up: key: ++: if growth and fermentation was equal to or greater than the positive control; +: if growth and fermentation was less than the positive control; +: if weak or no growth or fermentation; +^2: Bacteria demonstrated growth but no fermentation on the prebiotic; conditions: 2% w/v prebiotic in API 50 CHL media; for growth and fermentation vs positive control, Ef-2: E. faecalis KC16-7171-3, Bladder; for growth and fermentation vs positive control, Ef-3: E. faecalis KC17-3969-2B, Bladder; for growth and fermentation vs positive control, Ef-4: E. faecalis KC17-4331-3, Bladder; for growth and fermentation vs positive control, Ef-1: E. faecalis ATCC BAA-2128, Culture Collection
# Experimental: as §1, §2, §3
# L. crispatus = experiment: High throughput assay screening of prebiotics; format: cell-based, Lactobacillus crispatus; set-up: key: ++: if growth and fermentation was equal to or greater than the positive control; +: if growth and fermentation was less than the positive control; +: if weak or no growth or fermentation; +^2: Bacteria demonstrated growth but no fermentation on the prebiotic; conditions: 2% w/v prebiotic in API 50 CHL media; for growth and fermentation vs positive control, Lc-2: L. crispatus KC16-7134-3C, Bladder; for growth and fermentation vs positive control, Lc-3: L. crispatus KC18-1173-1, Bladder; for growth and fermentation vs positive control, Lc-4: L. crispatus KC18-1174-1, Vagina; for growth and fermentation vs positive control, Lc-1: L. crispatus ATCC 33820, Culture Collection
# Experimental: as §1, §2, §3
# [1] = test system: commensal and pathogenic bacterial species; experiment: Prebiotic screening, summary in words across species; format: cell-based; conditions: commensal (L. crispatus, L. gasseri, L. jensenii) and pathogenic (S. anginosus, E. faecalis) species
# In short: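 Prebiotics at 2% w/v stock in API 50 CHL medium with bromocresol purple, inoculated with bacteria and read every 20 min for 24-48 h at OD430/590 (fermentation) and OD660 (growth), scored against a glucose control. Some tested on MRS-based agar with the prebiotic in place of glucose; competition assay with L. crispatus and S. anginosus incubated 48 h anaerobically at 37 °C, then enumerated on MRS and TSA.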
Compound,"growth and fermentation vs positive control, Sa-2 (S. anginosus)","growth and fermentation vs positive control, Lj-1 (L. jensenii; L. jensenii KC17-4297-18, Bladder)","growth and fermentation vs positive control, Lg-1 (L. gasseri)","growth and fermentation vs positive control, Lg-2 (L. gasseri)","growth and fermentation vs positive control, Lg-3 (L. gasseri; L. gasseri KC18-1131-2, Bladder)","growth and fermentation vs positive control, Lg-4 (L. gasseri; L. gasseri KC18-1142-2, Bladder)","growth and fermentation vs positive control, Ef-2 (E. faecalis)","growth and fermentation vs positive control, Ef-3 (E. faecalis)","growth and fermentation vs positive control, Ef-4 (E. faecalis)","growth and fermentation vs positive control, Lc-2 (L. crispatus)","growth and fermentation vs positive control, Lc-3 (L. crispatus)","growth and fermentation vs positive control, Lc-4 (L. crispatus)","overall outcome of the screening of Table 3, in words [1]","growth and fermentation vs positive control, Sa-1 (S. anginosus)","growth and fermentation vs positive control, Lj-2 (L. jensenii)","growth and fermentation vs positive control, Ef-1 (E. faecalis)","growth and fermentation vs positive control, Lc-1 (L. crispatus)"
OC[C@H]1O[C@@H](O[C@H]2[C@H](O)[C@@H](O)[C@H](O)O[C@@H]2CO)[C@H](O)[C@@H](O)[C@@H]1O [D-Cellobiose],++,+,+,++,++,++,++,++,++,++,+,+,"able to provide growth on the commensal bacterial species, but also provided growth on the pathogenic bacterial species",,,,
OCc1ccccc1O[C@@H]1O[C@H](CO)[C@@H](O)[C@H](O)[C@H]1O [Salicin],++,,++,,,,++,++,++,,,,"able to provide growth on the commensal bacterial species, but also provided growth on the pathogenic bacterial species",++,++,++,++
Maltotriose,++,,++,++,,,++,++,++,++,++,++,"able to provide growth on the commensal bacterial species, but also provided growth on the pathogenic bacterial species",++,++,++,++
